17 compounds from patent US9169217B2, “Arylalkyl esters of 4-amino-6-(substituted phenyl)-picolinates and 6-amino-2-(substituted phenyl)-pyrimidinecarboxylates and their use as selective herbicides for crops” (Dow AgroSciences LLC, priority 2011, dated 2015) can be followed below.

The subject of data set [1] is Scirpus juncoides ROXB. (Japanese bulrush). Nature of the data set: In-water applied herbicidal activity in transplanted paddy rice (Example 17). The class given is in vivo. The conditions noted are these: Schoenoplectiella juncoides, 504 h; rice cropping systems, in-water applied (paddy), 17.5 g ae/ha, 21 DAA; may represent multiple trials; read-out: Visual Injury (%) SCPJU. The protocol:
(§1) Weed seeds or nutlets of the desired test plant species were planted in puddled soil (mud) prepared by mixing a non-sterilized mineral soil (28 percent silt, 18 percent clay, and 54 percent sand, with a pH of about 7.3 to 7.8 and an organic matter content of about 1.0 percent) and water at a ratio of 100 kilograms (kg) of soil to 19 liters (L) of water. The prepared mud was dispensed in 250 mL aliquots into 480 mL non-perforated plastic pots with a surface area of 91.6 cm^2 leaving a headspace of 3 cm in each pot. Rice seeds were planted in Sun Gro MetroMix 306 planting mixture, which typically has a pH of 6.0 to 6.8 and an organic matter content of about 30 percent, in plastic plug trays. Seedlings at the second or third leaf stage of growth were transplanted into 650 mL of mud contained in 960 mL non-perforated plastic pots with a surface area of 91.6 cm^2 four days prior to herbicide application. The paddy was created by filling the 3 cm headspace of the pots with water. When required to ensure good germination and healthy plants, a fungicide treatment and/or other chemical or physical treatment was applied. The plants were grown for 4-14 d in a greenhouse with an approximate 14-h photoperiod which was maintained at about 29° C. during the day and 26° C. during the night. Nutrients were added as Osmocote (17:6:10, Nitrogen:Phosphorus:Potassium (N:P:K)+minor nutrients) at 2 grams (g) per cup. Water was added on a regular basis to maintain the paddy flood, and supplemental lighting was provided with overhead metal halide 1000-Watt lamps as necessary. The plants were employed for testing when they reached the second or third true leaf stage.
(§2) Treatments consisted of esters of compounds 1-4, 6-33, 35-39, 41 and 42 and A-G. Compound A is methyl 4-amino-3-chloro-6-(4-chloro-3-ethoxy-2-fluorophenyl)-5-fluoropicolinate; compound B is methyl 4-amino-3-chloro-6-(4-cyclopropylphenyl)-5-fluoropicolinate; compound C is methyl 4-amino-3-chloro-6-(2,4-dichloro-3-methoxyphenyl)picolinate; compound D is methyl 6-amino-2-(4-chloro-2-fluoro-3-methoxyphenyl)-5-vinylpyrimidine-4-carboxylate; compound E is methyl 4-amino-3-chloro-6-(4-chloro-2-fluoro-3-methoxyphenyl)-5-fluoropicolinate; compound F is methyl 6-amino-2-(4-chloro-2-fluoro-3-methoxyphenyl)-5-methoxypyrimidine-4-carboxylate; and compound G is methyl 4-amino-3-chloro-6-(4-chloro-2-fluoro-3-methoxyphenyl)picolinate. Weighed amounts of technical grade compounds were placed in individual 120 mL glass vials and were dissolved in 20 mL of acetone to obtain concentrated stock solutions. […] The concentrated stock solutions obtained were diluted with 20 mL of an aqueous mixture containing 2.5% Agri-dex crop oil concentrate (v/v). The final application solutions contained 1.25% (v/v) Agri-dex crop oil concentrate. Generally, multiple concentrations were tested utilizing the same stock solution. Applications were made by injecting an appropriate amount of the application solution into the aqueous layer of the paddy. Control plants were treated in the same manner with the solvent blank.
(§3) The treated plants and control plants were placed in a greenhouse as described above and water was added as needed to maintain a paddy flood. After 3 weeks the condition of the test plants, compared with that of the untreated plants, was determined visually and scored on a scale of 0 to 100 percent where 0 corresponds to no injury and 100 corresponds to complete kill.
(§4) By applying the well-accepted probit analysis as described by J. Berkson in Journal of the American Statistical […], 48, 565 (1953) and by D. Finney in “Probit Analysis” Cambridge University Press (1952), the data gathered can be used to calculate GR50 and GR80 values, which are defined as growth reduction factors that correspond to the effective dose of herbicide required to kill or control 50 percent or 80 percent, respectively, of a target plant.

Data set [2] concerns Echinochloa crus-galli (L.) P.BEAUV. (barnyardgrass). The description is as above. The class given is in vivo. The conditions noted are these: Echinochloa crus-galli, 504 h, rice cropping systems, in-water applied (paddy), 21 DAA, may represent multiple trials, read-out: Visual Injury (%) ECHCG; for pest or weed control at 17.5 g/ha: 17.5 g ae/ha; for pest or weed control at 35 g/ha: 35 g ae/ha. The protocol:
as §1, §2, §3, §4

The test system of data set [3] is Scirpus juncoides ROXB. (Japanese bulrush). As to the kind of experiment: Postemergence foliar-applied herbicidal activity in direct seeded rice (Example 16). In kind it is in vivo. Conditions: Schoenoplectiella juncoides, post-emergence, 504 h; rice cropping systems, foliar-applied, 8.75 g ae/ha, 21 DAA; may represent multiple trials; read-out: Visual Injury (%) SCPJU.
Source text: (§5) Seeds or nutlets of the desired test plant species were planted in a soil matrix prepared by mixing a loam soil (43 percent silt, 19 percent clay, and 38 percent sand, with a pH of about 8.1 and an organic matter content of about 1.5 percent) and river sand in an 80 to 20 ratio. The soil matrix was contained in plastic pots with a surface area of 139.7 cm^2. When required to ensure good germination and healthy plants, a fungicide treatment and/or other chemical or physical treatment was applied. The plants were grown for 10-17 d in a greenhouse with an approximate 14-h photoperiod which was maintained at about 29° C. during the day and 26° C. during the night. Nutrients and water were added on a regular basis and supplemental lighting was provided with overhead metal halide 1000-Watt lamps as necessary. The plants were employed for testing when they reached the second or third true leaf stage.
(§6) Treatments consisted of esters of compounds 1-4, 6-8, 10, 11, 13-16, 20-31, 35, 38, 41 and 42 and A-E. Compound A is methyl 4-amino-3-chloro-6-(4-chloro-3-ethoxy-2-fluorophenyl)-5-fluoropicolinate; compound B is methyl 4-amino-3-chloro-6-(4-cyclopropylphenyl)-5-fluoropicolinate; compound C is methyl 4-amino-3-chloro-6-(2,4-dichloro-3-methoxyphenyl)picolinate; compound D is methyl 6-amino-2-(4-chloro-2-fluoro-3-methoxyphenyl)-5-vinylpyrimidine-4-carboxylate; and compound E is methyl 4-amino-3-chloro-6-(4-chloro-2-fluoro-3-methoxyphenyl)-5-fluoropicolinate. Weighed amounts of technical grade compounds were placed in 25 mL glass vials and dissolved in a volume of 97:3 v/v acetone-DMSO to obtain 12× stock solutions. […] The concentrated stock solutions were added to the spray solutions so that the final acetone and DMSO concentrations were 16.2% and 0.5%, respectively. Spray solutions were diluted to the appropriate final concentrations with the addition of 10 mL of an aqueous mixture of 1.5% (v/v) Agri-dex crop oil concentrate. Generally, multiple concentrations of spray solutions were formulated and tested utilizing the same stock solution. The final spray solutions contained 1.25% (v/v) Agri-dex crop oil concentrate. Compound requirements are based upon a 12 mL application volume at a rate of 187 L/ha. Spray solutions were applied to the plant material with an overhead Mandel track sprayer equipped with 8002E nozzles calibrated to deliver 187 L/ha over an application area of 0.503 square meters (m^2) at a spray height of 18 inches (43 cm) above average plant canopy height. Control plants were sprayed in the same manner with the solvent blank.
(§7) The treated plants and control plants were placed in a greenhouse as described above and watered by sub-irrigation to prevent wash-off of the test compounds. After 3 weeks, the condition of the test plants, compared with that of the untreated plants, was determined visually and scored on a scale of 0 to 100 percent where 0 corresponds to no injury and 100 corresponds to complete kill.
as §4

In data set [4] the test system is Cyperus difformis L. (small-flower flatsedge). The data set is described as above. In kind it is in vivo. The conditions noted are these: post-emergence, 504 h, rice cropping systems, foliar-applied, 8.75 g ae/ha, 21 DAA, may represent multiple trials, read-out: Visual Injury (%) CYPDI.
Source text: as §5, §6, §7, §4

In general, melting point refers to the temperature of the solid-liquid transition.

In turn, `COc1c(Cl)ccc(-c2nc(C(=O)OCc3ccccc3Cl)c(Cl)c(N)c2F)c1F` [Compound 9] showed a melting point of 183 to 184 °C. Besides, in data set [1], the pest or weed control at 17.5 g/ha turned out to be 100%. For the same compound, in data set [2], the pest or weed control at 17.5 g/ha turned out to be 100%.
Consider `COc1c(Cl)ccc(-c2nc(C(=O)OCc3ccc([N+](=O)[O-])cc3)c(Cl)c(N)c2F)c1F` [Compound 21], for which the melting point lay within 207 to 208 °C. In addition, the pest or weed control at 17.5 g/ha in data set [1] was determined as 80%. The pest or weed control at 17.5 g/ha in data set [2] turned out to be 10%. For the same compound, the pest or weed control at 8.75 g/ha in data set [3] amounted to 100%. Besides, in data set [4], the pest or weed control at 8.75 g/ha worked out at 100%.
`COc1c(Cl)ccc(-c2nc(C(=O)OCCc3ccccc3)c(Cl)c(N)c2F)c1F` [Compound 15] registered a melting point of 84 to 85 °C. For the same compound, in data set [1], the pest or weed control at 17.5 g/ha came out at 70%. Also, the pest or weed control at 17.5 g/ha in data set [2] is 30%. Besides, in data set [3], the pest or weed control at 8.75 g/ha was 90%. For the same compound, the pest or weed control at 8.75 g/ha in data set [4] came to 100%.
Consider `COc1c(Cl)ccc(-c2nc(C(=O)OCc3ccc(OC(F)(F)F)cc3)c(Cl)c(N)c2F)c1F` [Compound 20, 4-trifluoromethoxybenzyl 4-amino-3-chloro-6-(4-chloro-2-fluoro-3-methoxyphenyl)-5-fluoropicolinate], for which the values for the pest or weed control at 17.5 g/ha in data set [1] and in data set [2] were 0% and 50%, respectively. The pest or weed control at 8.75 g/ha in data set [3] and in data set [4] was 100% in each case.
Compound `COc1c(Cl)ccc(-c2nc(C(=O)OCc3ccc(Cl)cc3C)c(Cl)c(N)c2F)c1F` [Compound 30] showed a melting point of 167 to 168 °C. For the same compound, the pest or weed control at 17.5 g/ha in data set [1] amounted to 85%. Moreover, in data set [2], the pest or weed control at 17.5 g/ha was determined as 50%. Moreover, the pest or weed control at 8.75 g/ha in data set [3] was determined as 0%. The pest or weed control at 8.75 g/ha in data set [4] was found to be 99%.
`COc1c(Cl)ccc(-c2nc(C(=O)OCc3ccc(C(F)(F)F)cc3)c(Cl)c(N)c2F)c1F` [Compound 6] showed a melting point of 118 to 119 °C. In data set [1], the pest or weed control at 17.5 g/ha worked out at 95%. Besides, in data set [2], the pest or weed control at 17.5 g/ha was found to be 60%. Further, in data set [3], the pest or weed control at 8.75 g/ha came out at 100%. The pest or weed control at 8.75 g/ha in data set [4] was found to be 100%.
Consider `COc1c(Cl)ccc(-c2nc(C(=O)OCc3ccc(C)cc3)c(Cl)c(N)c2F)c1F` [Compound 3], for which the melting point came to 139 °C. In addition, the pest or weed control at 17.5 g/ha in data set [1] came to 99%. Besides, the pest or weed control at 17.5 g/ha in data set [2] was determined as 78%. Besides, in data set [3], the pest or weed control at 8.75 g/ha was found to be 99%. The pest or weed control at 8.75 g/ha in data set [4] was 100%.
`COc1c(Cl)ccc(-c2nc(C(=O)OCc3ccc(F)cc3)c(Cl)c(N)c2F)c1F` [Compound 24] gave a melting point of 143 to 144 °C. Further, the pest or weed control at 17.5 g/ha in data set [1] amounted to 100%. In addition, the pest or weed control at 17.5 g/ha in data set [2] came to 70%. The pest or weed control at 8.75 g/ha in data set [3] worked out at 100%. Besides, the pest or weed control at 8.75 g/ha in data set [4] came to 100%.
For `COc1c(Cl)ccc(-c2nc(C(=O)OCc3cccc(Cl)c3)c(Cl)c(N)c2F)c1F` [Compound 12], the melting point is 147 to 148 °C. In data set [1], the pest or weed control at 17.5 g/ha amounted to 100%. For the same compound, the pest or weed control at 17.5 g/ha in data set [2] amounted to 100%.
In turn, `COC(=O)c1cccc(COC(=O)c2nc(-c3ccc(Cl)c(OC)c3F)c(F)c(N)c2Cl)c1` [Compound 29] came in with a melting point of 144 to 145 °C. Further, the pest or weed control at 17.5 g/ha in data set [1] was 60%. In addition, the pest or weed control at 17.5 g/ha in data set [2] is 10%. Also, the pest or weed control at 8.75 g/ha in data set [3] was determined as 100%. In data set [4], the pest or weed control at 8.75 g/ha was 100%.
Compound `COc1c(Cl)ccc(-c2nc(C(=O)OCc3ccc(C#N)cc3)c(Cl)c(N)c2F)c1F` [Compound 4] registered a melting point of 151 °C. For the same compound, the pest or weed control at 17.5 g/ha in data set [1] stood at 95%. Also, the pest or weed control at 17.5 g/ha in data set [2] amounted to 95%. Besides, in data set [3], the pest or weed control at 8.75 g/ha is 80%. In addition, the pest or weed control at 8.75 g/ha in data set [4] came to 80%.
As to `COc1c(Cl)ccc(-c2nc(C(=O)OC(C)c3ccccc3)c(Cl)c(N)c2F)c1F` (stereo not drawn) [Compound 14], the values for the pest or weed control at 17.5 g/ha in data set [1] and in data set [2] were 70% and 10%, respectively. Moreover, the pest or weed control at 8.75 g/ha in data set [3] worked out at 50%; in data set [4], 95%.
In turn, `COc1ccc(COC(=O)c2nc(-c3ccc(Cl)c(OC)c3F)c(F)c(N)c2Cl)cc1` [Compound 5] gave a melting point of 183 to 184 °C.
`COc1c(Cl)ccc(-c2cc(N)c(Cl)c(C(=O)OCc3ccc(Cl)cc3)n2)c1F` [Compound 18] had a melting point of 100 to 108 °C. Moreover, in data set [2], the pest or weed control at 35 g/ha was 100%.
For the compound `COC(=O)c1ccccc1COC(=O)c1nc(-c2ccc(Cl)c(OC)c2F)c(F)c(N)c1Cl` [Compound 32], the melting point was found to be 161 °C. For the same compound, the pest or weed control at 17.5 g/ha in data set [1] was 100%. Moreover, the pest or weed control at 17.5 g/ha in data set [2] amounted to 60%.
As to `COc1c(Cl)ccc(-c2cc(N)c(Cl)c(C(=O)OC(C)c3ccccc3)n2)c1F` (stereo not drawn) [Compound 19], the melting point is 110 to 113 °C. Besides, the pest or weed control at 35 g/ha in data set [2] stood at 90%.
Take `COc1c(Cl)ccc(-c2cc(N)c(Cl)c(C(=O)OCCc3ccccc3)n2)c1F` [Compound 37]: the pest or weed control at 35 g/ha in data set [2] turned out to be 98%.
